Reference: patent publication US12565501B2, “Muscarinic acetylcholine M1 receptor antagonists” (Contineum Therapeutics, Inc., priority 2019, dated 2026)
pIC50: −log10 of the molar value.

Legend:
Format in all cases: cell-based
[1] = target: T1, human M2 receptor (Homo sapiens, UniProt P08172); assay: In vitro functional assay, reversal of EC80 acetylcholine response in CHO-K1 aequorin cells
T1 sequence (P08172 1-466): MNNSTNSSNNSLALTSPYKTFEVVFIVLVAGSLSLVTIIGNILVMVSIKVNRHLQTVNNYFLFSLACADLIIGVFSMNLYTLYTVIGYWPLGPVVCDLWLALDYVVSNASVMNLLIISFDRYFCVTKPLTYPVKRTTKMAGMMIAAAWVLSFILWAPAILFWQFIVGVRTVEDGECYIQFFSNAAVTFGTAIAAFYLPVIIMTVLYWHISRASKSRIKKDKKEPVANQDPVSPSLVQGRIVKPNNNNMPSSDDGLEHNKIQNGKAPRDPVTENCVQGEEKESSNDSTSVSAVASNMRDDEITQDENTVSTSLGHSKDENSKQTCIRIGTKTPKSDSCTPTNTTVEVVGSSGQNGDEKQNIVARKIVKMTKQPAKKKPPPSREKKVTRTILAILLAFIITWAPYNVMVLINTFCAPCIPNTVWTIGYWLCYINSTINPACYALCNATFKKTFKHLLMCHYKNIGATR
Protocol: (§1) CHO-K1 cells stably expressing human M1 receptor with aequorin (Perkin Elmer) were grown in F12 media (Gibco) containing 10% FBS (ATCC), 0.4 mg/mL geneticin (Sigma-Aldrich) and 0.25 mg/mL Zeocin (Invitrogen). Cells were grown as per the manufacturer's protocol. For compound testing, cells were grown to confluency and detached gently with Accutase (Sigma-Aldrich) followed by centrifugation for 5 min at 150× g. Cells were then re-suspended in assay buffer (i.e. DMEM/F-12 HEPES without phenol red (Invitrogen) with 0.1% BSA (Sigma-Aldrich)) at a density of 5×10^6 cells/ml. Under sterile conditions, 5 μM coelenterazine (Invitrogen) was added to the cells, mixed, then incubated at room temperature protected from light, with gentle agitation, for 4 h.
(§2) Primary compound plates were prepared in 100% DMSO in opaque 96-well plates (VWR) and serially diluted in half log increments. Secondary compound plates were prepared at 3× concentration in assay buffer. Compounds were added to white, clear bottom tissue culture treated 96-well plates (Fisher Scientific). Coelenterazine-loaded cells were then added at 5×10^5 cells/well.
(§3) Compounds and cells were incubated at room temperature for 30 min in the dark. Acetylcholine at the EC80 concentration was added and calcium flux measured using a FlexStation 3 (Molecular Devices). Sigmoidal dose-response curves were generated by measuring luminescence over 40 sec and calculating the area under the curve. Dose response curves and IC50 values were generated using Prism (GraphPad). Compounds were tested at a final concentration range of 100 μM to […] in 0.1% DMSO.
(§4) CHO-K1 cells stably expressing human M2, M3 and M4 receptors, respectively, with aequonin (Perkin Elmer) were used to assess a test compound's ability to dose-dependently reverse the EC80 acetylcholine response. The IC50 of the compounds was calculated from the dose response curve.

[2] = target: T2, human M4 receptor (Homo sapiens, UniProt P08173); assay: as above
T2 sequence (P08173 1-479): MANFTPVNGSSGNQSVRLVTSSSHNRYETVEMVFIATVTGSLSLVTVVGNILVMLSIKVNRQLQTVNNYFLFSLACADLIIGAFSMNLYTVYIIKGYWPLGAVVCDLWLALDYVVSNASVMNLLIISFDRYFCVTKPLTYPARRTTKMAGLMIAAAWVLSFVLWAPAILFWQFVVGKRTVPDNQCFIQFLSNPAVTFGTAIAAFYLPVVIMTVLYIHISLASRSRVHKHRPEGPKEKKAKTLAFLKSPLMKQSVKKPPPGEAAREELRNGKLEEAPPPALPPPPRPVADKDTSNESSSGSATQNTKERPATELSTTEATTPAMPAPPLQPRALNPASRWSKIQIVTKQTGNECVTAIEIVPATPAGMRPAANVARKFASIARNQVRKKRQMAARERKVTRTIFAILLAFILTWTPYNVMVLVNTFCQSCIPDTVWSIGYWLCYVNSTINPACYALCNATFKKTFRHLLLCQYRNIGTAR
Protocol: as §1, §2, §3, §4

[3] = target: human M3 receptor (Homo sapiens, UniProt P20309); assay: as above
Sequence of human M3 receptor (P20309 whole entry): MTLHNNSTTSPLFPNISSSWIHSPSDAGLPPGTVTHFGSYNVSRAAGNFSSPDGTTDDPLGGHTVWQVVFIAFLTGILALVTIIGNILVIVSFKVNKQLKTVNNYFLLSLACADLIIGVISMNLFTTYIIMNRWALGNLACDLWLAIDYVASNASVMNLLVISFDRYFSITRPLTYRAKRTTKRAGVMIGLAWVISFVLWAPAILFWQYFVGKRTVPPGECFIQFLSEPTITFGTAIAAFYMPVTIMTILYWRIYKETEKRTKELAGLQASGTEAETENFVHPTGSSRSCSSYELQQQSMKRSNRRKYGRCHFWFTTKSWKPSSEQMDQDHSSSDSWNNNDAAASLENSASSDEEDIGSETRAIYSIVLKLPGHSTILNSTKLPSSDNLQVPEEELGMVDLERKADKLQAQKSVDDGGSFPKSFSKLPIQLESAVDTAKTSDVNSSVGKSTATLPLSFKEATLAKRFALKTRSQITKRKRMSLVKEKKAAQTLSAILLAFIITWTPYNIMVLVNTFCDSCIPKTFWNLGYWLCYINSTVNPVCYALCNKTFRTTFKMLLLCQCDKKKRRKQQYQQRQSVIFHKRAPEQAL
Protocol: as §1, §2, §3, §4

[4] = target: T3, human M1 receptor (Homo sapiens, UniProt P11229); assay: In vitro functional assay of muscarinic acetylcholine receptor activity (aequorin calcium flux, reversal of EC80 acetylcholine response); conditions: CHO-K1 cells stably expressing human M1 receptor with aequorin; acetylcholine at EC80; calcium flux (luminescence); read-out: M1 IC50
T3 sequence (P11229 1-460): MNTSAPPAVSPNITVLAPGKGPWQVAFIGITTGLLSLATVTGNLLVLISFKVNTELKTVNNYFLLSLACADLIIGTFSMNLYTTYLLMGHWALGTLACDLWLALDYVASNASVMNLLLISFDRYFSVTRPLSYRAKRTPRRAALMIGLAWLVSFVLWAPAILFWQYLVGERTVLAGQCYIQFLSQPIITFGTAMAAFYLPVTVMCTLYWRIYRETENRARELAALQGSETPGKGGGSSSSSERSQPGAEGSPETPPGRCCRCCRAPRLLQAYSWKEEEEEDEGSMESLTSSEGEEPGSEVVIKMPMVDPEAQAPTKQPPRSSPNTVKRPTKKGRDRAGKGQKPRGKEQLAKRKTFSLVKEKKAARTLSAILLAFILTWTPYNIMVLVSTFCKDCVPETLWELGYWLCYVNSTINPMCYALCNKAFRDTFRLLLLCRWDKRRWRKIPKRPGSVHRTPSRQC
Summary of the method: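 Antagonist mode: compound (final 0.1% DMSO) and coelenterazine-loaded M1/aequorin CHO-K1 cells incubated 30 min in the dark before EC80 acetylcholine addition. Calcium flash integrated as 40 s luminescence AUC; IC50 derived from dose-response curves.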

SMILES	pIC50 [1]	pIC50 [2]	pIC50 [3]	pIC50 [4]
N#Cc1ccc(N2C3CCC2CN(C(=O)CNC2(c4ccc(F)cc4F)CC2)C3)nc1 [Example 59, 6-(3-((1-(2,4-difluorophenyl)cyclopropyl)glycyl)-3,8-diazabicyclo[3.2.1]octan-8-yl)nicotinonitrile]	5.00 to 6.00	5.00 to 6.00	5.00 to 6.00	> 8.00
N#Cc1ccc(N2C3CCC2CN(C(=O)CCNC2(c4ccc(F)c(F)c4)CC2)C3)nc1 [Example 1, 6-(3-(3-((1-(3,4-difluorophenyl)cyclopropyl)amino)propanoyl)-3,8-diazabicyclo[3.2.1]octan-8-yl)nicotinonitrile]	6.00 to 7.00	6.00 to 7.00	5.00 to 6.00	> 8.00
N#Cc1ccc(N2C3CCC2CN(C(=O)COC2(c4ncccc4F)CCC2)C3)nc1 [Example 250, 6-(3-(2-(1-(3-fluoropyridin-2-yl)cyclobutoxy)acetyl)-3,8-diazabicyclo[3.2.1]octan-8-yl)nicotinonitrile]	< 6.00	–	5.00 to 6.00	6.00 to 7.00
N#Cc1ccc(N2C3CCC2CN(C(=O)COC2(c4cc(F)cc(F)c4)CC2)C3)nc1 [Example 210, 6-(3-(2-(1-(3,5-difluorophenyl)cyclopropoxy)acetyl)-3,8-diazabicyclo[3.2.1]octan-8-yl)nicotinonitrile]	< 6.00	–	5.00 to 6.00	7.00 to 8.00
N#Cc1ccc(N2C3CCC2CN(C(=O)COC2(c4ccc(F)c(F)c4)CC2)C3)nc1 [Example 177, 6-(3-(2-(1-(3,4-difluorophenyl)cyclopropoxy)acetyl)-3,8-diazabicyclo[3.2.1]octan-8-yl)nicotinonitrile]	5.00 to 6.00	5.00 to 6.00	5.00 to 6.00	7.00 to 8.00
C[C@H](NCC(=O)N1CC2CCC(C1)N2c1ccc(C#N)cn1)c1ccc(F)cc1F [Example 87, 6-(3-(((S)-1-(2,4-difluorophenyl)ethyl)glycyl)-3,8-diazabicyclo[3.2.1]octan-8-yl)nicotinonitrile]	5.00 to 6.00	5.00 to 6.00	5.00 to 6.00	> 8.00
COc1cc(C(F)(F)CCC(=O)N2CC3CCC(C2)N3c2ccc(C#N)cn2)ccn1 [Example 138, 6-(3-(4,4-difluoro-4-(2-methoxypyridin-4-yl)butanoyl)-3,8-diazabicyclo[3.2.1]octan-8-yl)nicotinonitrile]	5.00 to 6.00	6.00 to 7.00	6.00 to 7.00	> 8.00
C[C@@H](OCCC(=O)N1C[C@H]2CC[C@@H](C1)N2c1ccc(C#N)cn1)c1ccccc1 [Example 304, 6-(3-(3-((R)-1-phenylethoxy)propanoyl)-3,8-diazabicyclo[3.2.1]octan-8-yl)nicotinonitrile]	5.00 to 6.00	–	< 6.00	7.00 to 8.00
N#Cc1ccc(C2(OCC(=O)N3CC4CCC(C3)N4c3ccc(C#N)cn3)CC2)cc1 [Example 296, 6-(3-(2-(1-(4-cyanophenyl)cyclopropoxy)acetyl)-3,8-diazabicyclo[3.2.1]octan-8-yl)nicotinonitrile]	–	–	–	5.00 to 6.00
N#Cc1ccc(N2C3CCC2CN(C(=O)COC(c2ccc(F)cc2)C(F)F)C3)nc1 (racemic) [Example 200, 6-(3-(2-(2,2-difluoro-1-(4-fluorophenyl)ethoxy)acetyl)-3,8-diazabicyclo[3.2.1]octan-8-yl)nicotinonitrile]	–	–	–	7.00 to 8.00
Cn1c(C2(OCC(=O)N3CC4CCC(C3)N4c3ccc(C#N)cn3)CCC2)cccc1=O [Example 299, 6-(3-(2-(1-(1-methyl-6-oxo-1,6-dihydropyridin-2-yl)cyclobutoxy)acetyl)-3,8-diazabicyclo[3.2.1]octan-8-yl)nicotinonitrile]	–	–	–	7.00 to 8.00
N#Cc1ccc(N2C[C@H]3CC[C@@H]2CN3C(=O)CNC2(c3ccc(F)cc3F)CC2)nc1 [Example 81, 6-((1R,4R)-5-((1-(2,4-difluorophenyl)cyclopropyl)glycyl)-2,5-diazabicyclo[2.2.2]octan-2-yl)nicotinonitrile]	–	–	–	< 6.00
N#Cc1ccc(N2C3CCC2CN(C(=O)CNC2(c4ccccn4)CC2)C3)nc1 [Example 63, 6-(3-((1-(pyridin-2-yl)cyclopropyl)glycyl)-3,8-diazabicyclo[3.2.1]octan-8-yl)nicotinonitrile]	–	–	–	5.00 to 6.00
N#Cc1ccc(N2C3CCC2CN(C(=O)CNC2(c4cc(F)ccc4F)CC2)C3)nc1 [Example 71, 6-(3-((1-(2,5-difluorophenyl)cyclopropyl)glycyl)-3,8-diazabicyclo[3.2.1]octan-8-yl)nicotinonitrile]	–	–	–	6.00 to 7.00
N#Cc1ccc(N2C3CCC2CN(C(=O)CNC2(c4ccccc4Br)CC2)C3)nc1 [Example 101, 6-(3-((1-(2-bromophenyl)cyclopropyl)glycyl)-3,8-diazabicyclo[3.2.1]octan-8-yl)nicotinonitrile]	–	–	–	7.00 to 8.00
COc1cc(C(F)(F)/C=C/C(=O)N2CC3CCC(C2)N3c2ccc(C#N)cn2)ccn1 [Example 139, 6-(3-((E)-4,4-difluoro-4-(2-methoxypyridin-4-yl)but-2-enoyl)-3,8-diazabicyclo[3.2.1]octan-8-yl)nicotinonitrile]	–	–	–	> 8.00
Cn1ccc(=O)c(C2(OCC(=O)N3CC4CCC(C3)N4c3ccc(C#N)cn3)CC2)c1 [Example 302, 6-(3-(2-(1-(1-methyl-4-oxo-1,4-dihydropyridin-3-yl)cyclopropoxy)acetyl)-3,8-diazabicyclo[3.2.1]octan-8-yl)nicotinonitrile]	–	–	–	< 6.00
N#Cc1ccc(N2C[C@@H]3C[C@H]2CN3C(=O)COC2(c3ccc(F)c(F)c3)CC2)nc1 [Example 287, 6-((1S,4S)-5-(2-(1-(3,4-difluorophenyl)cyclopropoxy)acetyl)-2,5-diazabicyclo[2.2.1]heptan-2-yl)nicotinonitrile]	–	–	–	5.00 to 6.00
COc1cnccc1C(F)(F)CCC(=O)N1CC2CCC(C1)N2c1ccc(C#N)cn1 [Example 140, 6-(3-(4,4-difluoro-4-(3-methoxypyridin-4-yl)butanoyl)-3,8-diazabicyclo[3.2.1]octan-8-yl)nicotinonitrile]	–	–	–	> 8.00
COc1cccc2c1CCN(CCC(=O)N1C[C@H]3CC[C@@H](C1)N3c1ccc(C#N)cn1)C2C (mixture of isomers) [Example 38, 6-(3-(3-(5-methoxy-1-methyl-3,4-dihydroisoquinolin-2(1H)-yl)propanoyl)-3,8-diazabicyclo[3.2.1]octan-8-yl)nicotinonitrile]	–	–	–	5.00 to 6.00
